The structures appear in SMILES notation. “And” between values parts separate entries of the source, which are not always exact repeats. Equal values may be shown once.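 1) Cells in 96-well plates. 2) Compound, 48 h, 5 concentrations. 3) Linear interpolation between surrounding doses. 4) Unreached endpoint = highest concentration. GI50 = concentration required for 50% inhibition of growth. TGI denotes the concentration required for complete inhibition of growth.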

Test systems include MCF7 breast; OVCAR-4 ovarian; IGROV1 ovarian; LOX IMVI melanoma; DU-145 prostate; TK-10 renal; SR leukemia; PC-3 prostate; SF-268 CNS; HOP-92 NSCLC.
Common to all, as to experiment: growth of human tumour cells (NCI), 48 h

For `COc1ccc(CCN2CCCN3C2=Nc2ccccc2S3(=O)=O)cc1`, the GI50 in the experiment with MCF7 breast is 0.329 µM; in the experiment on OVCAR-4 ovarian it was 0.912 µM; in the experiment with IGROV1 ovarian, 1.51 µM; in the experiment on LOX IMVI melanoma, 0.669 µM; in the experiment with DU-145 prostate it was 0.496 µM; in the experiment on TK-10 renal, 91 µM. Besides, the GI50 in the experiment with SR leukemia is 0.193 µM; with PC-3 prostate, 0.529 µM; with SF-268 CNS, 2.06 µM; with HOP-92 NSCLC it was 0.348 µM. The TGI in the experiment on MCF7 breast, with OVCAR-4 ovarian, in the experiment with IGROV1 ovarian, with LOX IMVI melanoma, with DU-145 prostate and in the experiment on TK-10 renal was > 100 µM in each case. Also, the TGI was > 100 µM with SR leukemia, > 100 µM with PC-3 prostate, > 100 µM in the experiment on SF-268 CNS and 13.4 µM with HOP-92 NSCLC.
Take `O=c1[nH]cc(/C=N\Nc2ccccc2)c(=O)[nH]1`: the TGI in the experiment with MCF7 breast, in the experiment with OVCAR-4 ovarian, in the experiment on IGROV1 ovarian, in the experiment with LOX IMVI melanoma, with DU-145 prostate and with TK-10 renal was > 100 µM in each case. In addition, the TGI in the experiment with SR leukemia, in the experiment on PC-3 prostate, in the experiment on SF-268 CNS and in the experiment on HOP-92 NSCLC was > 100 µM throughout.
As for `C=CC(=O)N1C/C(=C\c2ccccc2)C(=O)/C(=C/c2ccccc2)C1`, the GI50 is 0.395 µM in the experiment with MCF7 breast, 0.357 µM in the experiment with LOX IMVI melanoma and 0.566 µM in the experiment with SR leukemia. Further, the TGI in the experiment on MCF7 breast turned out to be 2.06 µM; in the experiment on OVCAR-4 ovarian, 6.6 µM; with IGROV1 ovarian, 4.2 µM; in the experiment with LOX IMVI melanoma, 0.638 µM; in the experiment on DU-145 prostate, 15.9 µM; in the experiment on TK-10 renal, 7 µM. Further, the TGI is 0.935 µM and 5.24 µM with SR leukemia; 3.91 µM with PC-3 prostate; 5.61 µM in the experiment on SF-268 CNS; 8.64 µM in the experiment on HOP-92 NSCLC.
As for `N=C(N)/N=C(\N)c1c(-c2cc(O)ccc2O)nc2sccn12`, the GI50 is 37.8 µM with MCF7 breast; 33.9 µM in the experiment with OVCAR-4 ovarian; 22.5 µM in the experiment on IGROV1 ovarian; 22.8 µM in the experiment on LOX IMVI melanoma; 16.8 µM in the experiment on DU-145 prostate; 17.9 µM in the experiment with TK-10 renal. For the same compound, the GI50 was 22.7 µM in the experiment with SR leukemia, 26.7 µM with PC-3 prostate, > 100 µM with SF-268 CNS and 18.3 µM with HOP-92 NSCLC. Besides, the TGI in the experiment on MCF7 breast is > 100 µM; in the experiment on OVCAR-4 ovarian it was > 100 µM; in the experiment with IGROV1 ovarian, 44.1 µM; in the experiment with LOX IMVI melanoma, 44.5 µM; in the experiment on DU-145 prostate it was 30.5 µM; in the experiment with TK-10 renal, 36.4 µM. Also, the TGI in the experiment on SR leukemia was 87.2 µM; with PC-3 prostate, > 100 µM; in the experiment on SF-268 CNS, > 100 µM; with HOP-92 NSCLC, 55.3 µM.
On to `NC(=O)/C(=C\c1ccncc1)c1cccc2ccccc12`, for which the TGI in the experiment on MCF7 breast, in the experiment on OVCAR-4 ovarian, with IGROV1 ovarian, with LOX IMVI melanoma, with DU-145 prostate and with TK-10 renal was > 100 µM throughout. The TGI in the experiment with SR leukemia, with PC-3 prostate, in the experiment on SF-268 CNS and in the experiment with HOP-92 NSCLC was > 100 µM throughout.
For the compound `CN1CCC(CNc2ccc3ncc(-c4cccc(OC(F)(F)F)c4)n3n2)CC1`, the GI50 is 1.61 µM and 1.81 µM in the experiment with MCF7 breast; 2.39 µM and 3.81 µM in the experiment with OVCAR-4 ovarian; 2.91 µM and 2.27 µM with IGROV1 ovarian; 1.56 µM and 1.47 µM with LOX IMVI melanoma; 3.35 µM and 3.6 µM in the experiment with DU-145 prostate; 2.36 µM and 2.16 µM in the experiment on TK-10 renal. In addition, the GI50 in the experiment with SR leukemia was 1.9 µM and 1.7 µM; with PC-3 prostate, 1.67 µM and 2.41 µM; in the experiment with SF-268 CNS, 1.57 µM and 3.2 µM; with HOP-92 NSCLC, 1.2 µM and 0.383 µM. For the same compound, the TGI with MCF7 breast is 3.25 µM and 5.46 µM; with OVCAR-4 ovarian it was 8.21 µM and > 10 µM; in the experiment with IGROV1 ovarian, 9.09 µM and 9.11 µM; with LOX IMVI melanoma, 3.2 µM and 2.85 µM; in the experiment on DU-145 prostate, 13.4 µM and > 10 µM; in the experiment with TK-10 renal it was 8.52 µM and > 10 µM. Besides, the TGI in the experiment on SR leukemia is 5.24 µM and 4.46 µM; in the experiment on PC-3 prostate, 7.13 µM and > 10 µM; with SF-268 CNS it was 3.64 µM and > 10 µM; in the experiment with HOP-92 NSCLC it was 3.81 µM and 3.66 µM.
Regarding `O=C(CCCCCCCn1cc(-c2cccnc2)nn1)Nc1ccccc1-c1ccccc1`, the GI50 was 3.36 µM with MCF7 breast; 10.9 µM in the experiment on OVCAR-4 ovarian; 0.272 µM in the experiment with IGROV1 ovarian; 4.05 µM in the experiment on LOX IMVI melanoma; 0.569 µM in the experiment on DU-145 prostate; 17.4 µM with TK-10 renal. Further, the GI50 is 3.65 µM in the experiment with SR leukemia, 0.43 µM in the experiment on PC-3 prostate, 20.4 µM in the experiment on SF-268 CNS and 31.8 µM with HOP-92 NSCLC. Further, the TGI in the experiment with MCF7 breast was 51.5 µM; in the experiment with OVCAR-4 ovarian, > 100 µM; in the experiment with IGROV1 ovarian it was > 100 µM; with LOX IMVI melanoma, > 100 µM; in the experiment on DU-145 prostate it was > 100 µM; in the experiment on TK-10 renal, > 100 µM. For the same compound, the TGI with SR leukemia is 64.8 µM; in the experiment on PC-3 prostate it was 36.7 µM; in the experiment on SF-268 CNS, > 100 µM; with HOP-92 NSCLC, > 100 µM.
For `CCCOc1ccc(-c2nc(-c3ccc(N=Cc4ccc(N(CCOS(C)(=O)=O)CCOS(C)(=O)=O)cc4C)cc3)cs2)cc1`, the TGI in the experiment on MCF7 breast is > 100 µM; with OVCAR-4 ovarian, 81.9 µM; with IGROV1 ovarian, > 67.1 µM; with LOX IMVI melanoma it was 66.8 µM; with DU-145 prostate, 18.1 µM; in the experiment on TK-10 renal, 41.1 µM. Besides, the TGI in the experiment on SR leukemia worked out at 57 µM; in the experiment on PC-3 prostate it was 77.9 µM; with SF-268 CNS it was 77.8 µM; in the experiment on HOP-92 NSCLC, 52.7 µM.
In the case of `COc1c2ccoc2cc2oc(=O)ccc12`, the TGI in the experiment with MCF7 breast, with OVCAR-4 ovarian, in the experiment with IGROV1 ovarian, in the experiment with LOX IMVI melanoma, in the experiment on DU-145 prostate and with TK-10 renal was > 100 µM throughout. Besides, the TGI in the experiment on SR leukemia, in the experiment with PC-3 prostate, in the experiment with SF-268 CNS and with HOP-92 NSCLC was > 100 µM in each case.

For the origin of these results see PubChem BioAssay (NCI).
